The values that follow come from US20220194914A1, “METHODS AND SYSTEMS FOR PRODUCTION OF FURFURAL” (SHELL OIL COMPANY, priority 2020, published 2022).

Read-outs that look alike come from different tables or passages of the source.

As usually defined, the LogP is the decadic logarithm of the partition coefficient of the neutral form, usually between octanol and water.

For data set [1] the following is noted: octanol-water, cited from earlier work.
The conditions of data set [2]: cited from earlier work; for Water solubility g/L (20° C.) / water solubility: 20° C.
Data set [3] is described as follows: Partitioning of components between the aqueous and non-aqueous phase of the biphasic solution (Example 4). The class given is physicochemical. Conditions: aqueous pH 1 (H2SO4), calculated ionic strength 3.0 M (Na2SO4) / MN, 1:1 volume. An excerpt:
The non-aqueous phase solution contains MN, PBA, and furfural. The biphasic solution was mixed to allow adequate contact amongst the various components, and the biphasic solution was subsequently allowed to settle into the two phases: aqueous and non-aqueous.

On to `CCCCCCCCO` [1-octanol], for which the LogP in data set [1] (Table 2 solvents) is reported as 3.10. In addition, the “Water solubility g/L (20° C.)” value in data set [2] (Table 2 solvents) was 0.3 g/L.
As for `Cc1cccc(C)c1O` [2,6 xylenol], the LogP in data set [1] (Table 2 solvents) is listed as 2.40.
Take `OB(O)c1ccc2ccccc2c1` [2-naphthylboronic acid]: the log partition coefficient (LogP) in data set [1] (Table 1 boronic acids) and in data set [1] was 2.82 in each case. Besides, the “Water solubility g/L (20° C.)” value in data set [2] (Table 1 boronic acids) is on record as 0.3 g/L. In addition, in data set [2], the water solubility is 0.03 wt %.
In the case of `CCCCc1ccc(B(O)O)cc1` [4-butylphenyl boronic acid], the lipophilicity (LogP) in data set [1] (Table 1 boronic acids) is 3.64. The “Water solubility g/L (20° C.)” value in data set [2] (Table 1 boronic acids) is “Insoluble”.
For the compound `CCc1ccc(B(O)O)cc1` [4-ethylphenyl boronic acid], the LogP in data set [1] (Table 1 boronic acids) is 2.58.
For `CC(C)(C)c1ccc(B(O)O)cc1` [4-tert-Butylphenyl boronic acid], the log partition coefficient (LogP) in data set [1] (Table 1 boronic acids) is given as 3.28. Also, the “Water solubility g/L (20° C.)” value in data set [2] (Table 1 boronic acids) is listed as “Insoluble”.
As for `CCc1ccc(O)cc1` [4Et-phenol], in data set [1] (Table 2 solvents), the lipophilicity (LogP) is given as 2.47. Moreover, the “Water solubility g/L (20° C.)” value in data set [2] (Table 2 solvents) was 6.1 g/L.
Consider `CC(C)CB(O)O` [(2-methylpropyl) boronic acid], for which, in data set [1] (Table 1 boronic acids), the LogP is 0.6. Also, the “Water solubility g/L (20° C.)” value in data set [2] (Table 1 boronic acids) is 33 g/L.
On to `c1ccc2occc2c1` [Benzofuran], for which the LogP in data set [1] (Table 2 solvents) was 2.67. Also, in data set [2] (Table 2 solvents), the “Water solubility g/L (20° C.)” value is listed as “insoluble”.
`Cc1cccc(O)c1` [Cresol (m)]: the LogP in data set [1] (Table 2 solvents) is on record as 1.94.
Regarding `OB(O)C1CCCCC1` [Cyclohexyl boronic acid], the LogP in data set [1] (Table 1 boronic acids) is on record as 1.90. The “Water solubility g/L (20° C.)” value in data set [2] (Table 1 boronic acids) is 25 g/L.
Turning to `CC(C)OC(C)C` [Diisopropyl ether], in data set [1] (Table 2 solvents), the LogP is on record as 2.03. Further, in data set [2] (Table 2 solvents), the “Water solubility g/L (20° C.)” value is on record as 1.7 g/L.
`CCc1ccccc1` [Ethylbenzene]: in data set [1] (Table 2 solvents), the LogP is 2.96. The “Water solubility g/L (20° C.)” value in data set [2] (Table 2 solvents) is 0.15 g/L.
For `O=Cc1ccco1` [Furfural], in data set [3], the “mol % of the component in Non-aqueous Phase with respect to the biphasic solution” value is on record as “(88 mol %)”, the “molar concentration in Aqueous Phase” value is 46 mM and the “molar concentration in Non-aqueous Phase” value is reported as 352 mM. Besides, the “mol % of the component in Non-aqueous Phase with respect to the biphasic solution” value in data set [3] (listed as furfural) was 88 mol %.
`OB(O)CCc1ccccc1` [Phenethyl boronic acid]: in data set [1] (Table 1 boronic acids), the LogP is on record as 1.20. In addition, the “Water solubility g/L (20° C.)” value in data set [2] (Table 1 boronic acids) is recorded as 1.8 g/L.
Consider `O=S(=O)([O-])[O-].[Na+].[Na+]` [Salt (based on 2Na), Na2SO4], for which, in data set [3], the “mol % of the component in Aqueous Phase with respect to the biphasic solution” value is “(>99 mol %)”, the “mol % of the component in Non-aqueous Phase with respect to the biphasic solution” value is “(0.2 mol %)”, the “molar concentration in Aqueous Phase” value is reported as 1M and the “molar concentration in Non-aqueous Phase” value is recorded as 2 mM. Besides, the “mol % of the component in Aqueous Phase with respect to the biphasic solution” value in data set [3] (listed as Na2SO4) is “over 99 mol %”.
Consider `COc1ccccc1` [anisole], for which, in data set [2] (Table 2 solvents), the “Water solubility g/L (20° C.)” value is 1.5 g/L.
As for `CCCCB(O)O` [butylboronic acid], the LogP in data set [1] (Table 1 boronic acids) was 1.43. Further, the “Water solubility g/L (20° C.)” value in data set [2] (Table 1 boronic acids) is on record as 25 g/L.
Turning to `COc1ccccc1O` [guaiacol], the LogP in data set [1] (Table 2 solvents) is recorded as 0.97. Also, the “Water solubility g/L” value in data set [2] (25° C., Table 2 solvents) is on record as 18.7 (25° C.) g/L.
As for `CCCCCCC` [heptane], in data set [1] (Table 2 solvents), the LogP is 4.47. For the same compound, the “Water solubility g/L (20° C.)” value in data set [2] (Table 2 solvents) is 0.003 g/L.
`Cc1cccc(B(O)O)c1` [m-tolylboronic acid]: in data set [1] (Table 1 boronic acids), the lipophilicity (LogP) is listed as 2.05. Moreover, the “Water solubility g/L (20° C.)” value in data set [2] (Table 1 boronic acids) was 25 g/L.
As for `OB(O)c1cccc2ccccc12` [naphthalene-1-boronic acid], in data set [2] (Table 1 boronic acids), the “Water solubility g/L (20° C.)” value is listed as 0.3 g/L.
Regarding `Cc1ccccc1B(O)O` [o-tolylboronic acid], the LogP in data set [1] (Table 1 boronic acids) was 2.05. The “Water solubility g/L (20° C.)” value in data set [2] (Table 1 boronic acids) was “Slightly”.
As to `CCCCCCCCB(O)O` [octylboronic acid], the lipophilicity (LogP) in data set [1] (Table 1 boronic acids) and in data set [1] was 3.56 in each case. The “Water solubility g/L (20° C.)” value in data set [2] (Table 1 boronic acids) is given as “Insoluble”. In addition, in data set [2], the water solubility entry is “water-insoluble”.
For `OB(O)c1ccccc1` [phenylboronic acid], in data set [3], the “molar concentration in Aqueous Phase” value is given as 129 mM and the “molar concentration in Non-aqueous Phase” value is on record as 566 mM. Moreover, in data set [1] (Table 1 boronic acids), the log partition coefficient (LogP) is 1.59. For the same compound, the “Water solubility g/L (20° C.)” value in data set [2] (Table 1 boronic acids) is 10 g/L. The water solubility in data set [2] is recorded as 1 wt %.
Consider Methylnaphtalene [MN], for which, in data set [3], the “molar concentration in Aqueous Phase” value is 2 mM and the “molar concentration in Non-aqueous Phase” value is listed as 7.03M.
